According to PubChem BioAssay AID1963958 (Molecular Pharmacology Branch, DTP, NCI, 2024):

System: MDA-MB-231 multicell spheroids, viability
Assay: Anticancer human tumor MDA-MB-231 cell line growth inhibition [PI3K];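 note: spheroids exposed to agents for seven days before reading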;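 for viability, T/C: percent of vehicle control luminescence with DMSO treated spheroids as 100%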
Settings: for IC50: curve of first compound; for viability, T/C: stronger effect = lower value
Description: Combinatorial screen of targeted agents with the PI3K inhibitors inavolisib, alpelisib, duvelisib, and copanlisib in multi-cell type tumor spheroids
A high-throughput screen of multi-cell type tumor spheroids was designed to identify active combinations of targeted small molecules and PI3K pathway inhibitors. Complex spheroids include a stromal component modeled by human endothelial cells (HUVEC) and fibroblasts modeled by human mesenchymal stem cells (MSCs). The concentration ranges selected for each drug and investigational agent were based upon clinically achievable concentrations if the clinical Cmax of the agent was known.
Compounds. The drugs and investigational agents: inavolisib (NSC800729), alpelisib (NSC765974), duvelisib (NSC772469), copanlisib (NSC816437), ipatasertib (NSC767898), afuresertib (NSC778305), talazoparib (NSC767125), sapanisertib (NSC764658), selumetinib (NSC741078), tovorafenib (DAY101, NSC766906), vemurafenib (NSC761431), ravoxertinib (NSC781343), sotorasib (NSC818433), MRTX1133 (NSC 836407), abemaciclib (NSC 768073), palbociclib (NSC758247), venetoclax (NSC 766270), SY5609 (NSC837396), enzalutamide (NSC755605), and darolutamide (NSC825331), were obtained from the National Cancer Institute (NCI) Developmental Therapeutics Program Chemical Repository. The FDA-approved anticancer drug set is available from the NCI Developmental Therapeutics Program. […] The stock solutions were prepared in dimethyl sulfoxide (DMSO, Sigma-Aldrich, St. Louis, MO, cat. D2650) at 800-fold the tested concentration and stored at -70 degrees C prior to their use. All drugs and investigational agents were tested over a range starting from a high concentration at or near the clinical Cmax and decreasing in half-log increments. If the clinical Cmax for an agent had not been determined, the highest concentration tested was 10 microM.
Cell Culture. All cells were maintained in an incubator at 37 degrees C and 5% CO2 with 95% humidity. The PDC lines were cultured according to standard operating procedures established by the NCI PDMR (https://pdmr.cancer.gov/sops/default.htm). All PDCs were thawed and cultured in Matrigel-coated flasks prepared with a working solution of 1X Ham's F-12 nutrient mix, without supplementation (Invitrogen, Waltham, MA, cat. 11765054), 100 U/mL penicillin-streptomycin (Invitrogen, cat. 15140122), and 2.5% Matrigel (Corning Inc., Corning, NY, cat. 354248) for the first three passages. The 354836-022-R-J1-PDC, 475296-252-R-J1-PDC, and 997726-040-R-J2-PDC lines were cultured in 6A media, which includes advanced DMEM/F-12 (Thermo Fisher Scientific, cat. 12634028), 10 mM HEPES (Thermo Fisher Scientific, cat. 15630080), 1X GlutaMAX supplement (Thermo Fisher Scientific, cat. 35050061), 0.1 mg/mL primocin (InvivoGen, San Diego, CA, cat. ant-pm-2), 10% defined fetal bovine serum, heat inactivated (HyClone Laboratories Inc., Logan, UT, cat. SH30070.03HI), 50% L-WRN conditioned media (ATCC, cat. CRL-3276), 1.25 mM N-Acetyl-L-cysteine (Sigma-Aldrich, cat. A9165), 10 mM nicotinamide (Sigma-Aldrich, cat. N0636), 1X B-27 supplement (Thermo Fisher Scientific, cat. 17504044), 1X N-2 supplement (Thermo Fisher Scientific, cat. 17502048), and 10 microM Y-27632 dihydrochloride (Tocris Bioscience, Bristol, United Kingdom, cat. 1254). The 624824-186-R-J2-PDC line was cultured in 6C/Colon 1B media, which includes all 6A media components plus 50 ng/mL human EGF recombinant protein (Thermo Fisher Scientific, cat. PHG0311). […]

CC(C)NCC(C(=O)N1CCN(c2ncnc3c2C(C)CC3O)CC1)c1ccc(Cl)cc1 (configuration not stated) + CC(Nc1ccc2c(c1)OCCn1cc(N3C(=O)OCC3C(F)F)nc1-2)C(N)=O
IC50 (second compound 0.00316 µM): 7.03 µM
IC50 (second compound 0.01 µM): 6.95 µM
IC50 (second compound 0.0316 µM): 5.1 µM
IC50 (second compound 0.1 µM): 4.31 µM
IC50 (second compound 0.316 µM): 2.69 µM
IC50 (second compound 1 µM): 1.92 µM
viability, T/C (second compound 0.00316 µM, first compound 0.0316 µM): 95.8%
viability, T/C (second compound 0.00316 µM, first compound 0.1 µM): 94.6%
viability, T/C (second compound 0.00316 µM, first compound 0.316 µM): 99.3%
viability, T/C (second compound 0.00316 µM, first compound 1 µM): 86.6%
viability, T/C (second compound 0.00316 µM, first compound 3.16 µM): 67.1%
viability, T/C (second compound 0.00316 µM, first compound 10 µM): 42.5%
viability, T/C (second compound 0.01 µM, first compound 0.0316 µM): 87.5%
viability, T/C (second compound 0.01 µM, first compound 0.1 µM): 93.1%
viability, T/C (second compound 0.01 µM, first compound 0.316 µM): 81.8%
viability, T/C (second compound 0.01 µM, first compound 1 µM): 81.6%
viability, T/C (second compound 0.01 µM, first compound 3.16 µM): 60.1%
viability, T/C (second compound 0.01 µM, first compound 10 µM): 45.2%
viability, T/C (second compound 0.0316 µM, first compound 0.0316 µM): 86.6%
viability, T/C (second compound 0.0316 µM, first compound 0.1 µM): 84.1%
viability, T/C (second compound 0.0316 µM, first compound 0.316 µM): 72.7%
viability, T/C (second compound 0.0316 µM, first compound 1 µM): 71.4%
viability, T/C (second compound 0.0316 µM, first compound 3.16 µM): 56.8%
viability, T/C (second compound 0.0316 µM, first compound 10 µM): 39.9%
viability, T/C (second compound 0.1 µM, first compound 0.0316 µM): 71.6%
viability, T/C (second compound 0.1 µM, first compound 0.1 µM): 72.8%
viability, T/C (second compound 0.1 µM, first compound 0.316 µM): 67.7%
viability, T/C (second compound 0.1 µM, first compound 1 µM): 63.5%
viability, T/C (second compound 0.1 µM, first compound 3.16 µM): 54.5%
viability, T/C (second compound 0.1 µM, first compound 10 µM): 38.2%
viability, T/C (second compound 0.316 µM, first compound 0.0316 µM): 66.2%
viability, T/C (second compound 0.316 µM, first compound 0.1 µM): 63.7%
viability, T/C (second compound 0.316 µM, first compound 0.316 µM): 59.7%
viability, T/C (second compound 0.316 µM, first compound 1 µM): 61.6%
viability, T/C (second compound 0.316 µM, first compound 3.16 µM): 47.2%
viability, T/C (second compound 0.316 µM, first compound 10 µM): 30.8%
viability, T/C (second compound 1 µM, first compound 0.0316 µM): 64%
viability, T/C (second compound 1 µM, first compound 0.1 µM): 61.3%
viability, T/C (second compound 1 µM, first compound 0.316 µM): 58.9%
viability, T/C (second compound 1 µM, first compound 1 µM): 52.9%
viability, T/C (second compound 1 µM, first compound 3.16 µM): 48.3%
viability, T/C (second compound 1 µM, first compound 10 µM): 34.9%
